Experimental findings from article PMC3299254 (International Journal of Microbiology, 2012) are described below.

Read-outs that look alike come from different tables or passages of the source. No end group written: not given here.

The test system of series [1] is human erythrocytes. The experiment in a line: Minimum hemolytic concentration (MHC). The format is cell-based. As to the method:
The MHCs were measured by the method as described in Chen et al.: peptides were added to 1% human erythrocytes in phosphate-buffered saline (0.08 mol/L NaCl, 0.043 mol/L Na2HPO4, 0.011 mol/L KH2PO4) and then kept at 37°C for 1 h in microtiter plates. The supernatants were collected by centrifugation (800 g), and the OD562 of each supernatant was determined. We chose a 0.1% Triton X-100 solution as the positive control because this solution causes the total release of hemoglobin. We defined the MHC as the highest peptide concentration that caused no detectable release of hemoglobin (the ratio of the OD562 for the peptide solution to the OD562 for the positive control should be less than 1%).

Series [2] concerns Pseudomonas aeruginosa CMCC10104. The format is cell-based. To be noted: for MIC: Pseudomonas aeruginosa CMCC10104, microtiter dilution, LB medium without salt, 10^4-10^5 CFU/mL, 37°C, 24 h, OD620, Table 2. As to the method:
(§1) All strains were cultured on Mueller-Hinton medium.

Series [3] relates to Acinetobacter baumannii clinical isolates. Type of series: cell-based. To be noted: microtiter dilution, 37°C, 24 h, OD620. As to the method: as §1
Series [4] can be described thus: Circular dichroism, percentage helicity. The format is physicochemical. The note with it: CD, 100 μM peptide, 10 mM sodium phosphate pH 7.5, 50% trifluoroethanol. As to the method:
CD spectra were obtained with a Jasco J-710 instrument (Jasco, Tokyo, Japan) utilizing quartz cells with a 2 mm path length and peptide concentrations of 100 μM in a 10 mM sodium phosphate buffer with a pH of 7.5 containing 50% trifluoroethanol. Each spectrum was obtained from an average of 5 pairs of duplicates, and the percentage helicity of each peptide was determined.
The hydrophobic moments were determined with the HeliQuest web server, which can be used to evaluate amphipathicity. The percent helix values were determined based on CD spectra.

For series [5], the system named is Soluble wall Micrococcus S1.634. The note with it: microtiter dilution, 37°C, 24 h, OD620. An excerpt:
(§2) Twenty-two clinical isolates and night standard laboratory strains were used in this study: 4 Acinetobacter baumannii, 4 Pseudomonas aeruginosa, 3 Staphylococcus epidermidis, and 6 Klebsiella pneumonia (Changhai Hospital, Shanghai, China); 5 methicillin-resistance Staphylococcus aureus (Ruijin Hospital, Shanghai, China); Staphylococcus aureus CMCC26003; Bacillus subtilis DB430;Bacillus pumilus CMCC63202; Micrococcus luteus CMCC28001; E. coli ATCC8099; Klebsiella pneumoniae CMCC46117;Salmonella paratyphi B CMCC50094; Pseudomonas aeruginosa CMCC10104; Micrococcus S1.634. In addition, Pseudomonas aeruginosa CMCC10104 was used during the design of the peptides for evaluating antimicrobial activities. All strains were cultured on Mueller-Hinton medium.
(§3) The antibacterial activities of the different peptides were evaluated using the minimum inhibitory concentration (MIC). The process followed the standard microtiter dilution method in LB medium without salt. Briefly, bacteria were grown overnight in LB at 37°C and diluted in the same medium. Then, 100 μL of the medium was dispensed into each well of a 96-well plate. The number of bacteria was between 10^4 and 10^5 CFU/mL. Serial dilutions of peptides were performed consecutively in each well in 10 μL. Plates were incubated at 37°C for 24 h; then, the OD620 was measured to determine the MIC of each peptide.

The subject of series [6] is Pseudomonas aeruginosa clinical isolates. To be noted: range over 4 clinical isolates.
From the text: as §2, §3

For series [7], the system named is Staphylococcus aureus CMCC26003. The note with it: microtiter dilution, 37°C, 24 h, OD620.
From the text: as §2, §3

Series [8] concerns Klebsiella pneumoniae CMCC46117. The note with it: microtiter dilution, 37°C, 24 h, OD620.
From the text: as §2, §3

Series [9] relates to Klebsiella pneumonia clinical isolates. The note with it: range over 6 clinical isolates.
From the text: as §2, §3

Series [10] relates to Bacillus subtilis DB430. To be noted: microtiter dilution, 37°C, 24 h, OD620.
From the text: as §2, §3

For series [11], the system named is Bacillus pumilus CMCC63202. To be noted: microtiter dilution, 37°C, 24 h, OD620.
From the text: as §2, §3

Series [12] deals with Staphylococcus epidermidis clinical isolates. The note with it: range over 3 clinical isolates.
From the text: as §2, §3

The subject of series [13] is Salmonella paratyphi B CMCC50094. To be noted: microtiter dilution, 37°C, 24 h, OD620.
From the text: as §2, §3

Series [14] deals with E. coli ATCC8099. The note with it: microtiter dilution, 37°C, 24 h, OD620.
From the text: as §2, §3

In series [15] the test system is MRSA clinical isolates. The note with it: range over 5 clinical MRSA isolates.
From the text: as §2, §3

The subject of series [16] is Micrococcus luteus CMCC28001. To be noted: microtiter dilution, 37°C, 24 h, OD620.
From the text: as §2, §3

Series [17] deals with Gram-positive and Gram-negative bacteria and 22 clinical isolates. To be noted: overall statement.
From the text: as §2, §3

Where [18] appears, read: 1% human erythrocytes in PBS, 37°C, 1 h, OD562, highest concentration with no detectable hemoglobin release (<1% of 0.1% Triton X-100).
The mark [19] stands for this setting: MHC/MIC ratio, MHC human erythrocytes, MIC Pseudomonas aeruginosa.

On to KFKSFIKKLTSKFLHSAKKF-NH2 [Peptide F2], for which, in series [1] (setting [18]), the MHC was determined as 250 µg/mL. The Therapeutic index in series [2] (setting [19]) amounted to 20. In addition, the minimum inhibitory concentration (MIC) in [2] was found to be 12.5 mg/L.
For “KWKLFKKIPKFLHLAKKF-NH2 [Peptide P18, reference compound]”, the MHC in series [1] is 250 µg/mL. In series [2] (CMCC10104, 24 h), the Therapeutic index is recorded as 10. Further, the minimum inhibitory concentration (MIC) in series [2] turned out to be 25 mg/L; in [3] (clinical isolate b-01), 6.25 mg/L; in series [3] (clinical isolate b-02), 25 mg/L; in [3] (clinical isolate b-03) it was 12.5 mg/L; in [3] (clinical isolate b-04), 12.5 mg/L.
In [1] (setting [18]), KWKSFIKKAKTSFLHSAKKF-NH2 [Peptide A9] gave an MHC greater than 500 µg/mL. In addition, the Therapeutic index in [2] (setting [19]) was 20. In addition, the minimal inhibitory concentration (MIC) in series [2] is 25 mg/L.
In the case of KWKSFIKKKTSKFLHSAKKF-NH2 [Peptide K9], the minimal inhibitory concentration (MIC) in series [2] is greater than 50 mg/L.
With “KWKSFIKKLASKFLHSAKKF-NH2 [Peptide A10, S16 derivative by single amino acid substitution]”, the MHC in series [1] (setting [18]) was 250 µg/mL. In addition, in [2] (setting [19]), the Therapeutic index is 20. Further, the MIC in [2] worked out at 12.5 mg/L. Besides, the “%Helix” value in series [4] amounted to 72.5%.
Substance KWKSFIKKLLSKFLHSAKKF-NH2 [Peptide L10] had an MHC in series [1] (setting [18]) of less than 125 µg/mL. Moreover, the Therapeutic index in [2] (setting [19]) is reported as 10. Further, the MIC in series [2] is 12.5 mg/L.
Taken in the same sequence, the figures for KWKSFIKKLTDKFLHSAKKF-NH2 [Peptide D11] were greater than 500 µg/mL, 20 and 25 mg/L.
Consider KWKSFIKKLTKKFLHSAKKF-NH2 [Peptide K11], for which the Therapeutic index in series [2] (setting [19]) amounted to 320. In addition, the minimum inhibitory concentration (MIC) in [2] is 1.6 mg/L; in series [3] (clinical isolate b-01), 0.8 mg/L; in series [3] (clinical isolate b-02), 3.125 mg/L; in series [3] (clinical isolate b-04), 1.6 mg/L; in [5], 1 mg/L; in series [6] it was 1.0−8.0 μg/mL. The MIC in series [7] was 0.5 mg/L; in series [8], 2 mg/L; in [9] it was 0.5−4.0 μg/mL; in [10] it was 2 mg/L; in series [11], 0.5 mg/L; in [12] it was 0.5−8 μg/mL. Besides, the minimal inhibitory concentration (MIC) was 2 mg/L in [13], 0.5 mg/L in series [14], 0.25−4 μg/mL in [15] and 2 mg/L in [16]. In addition, in series [17], the MICs result is reported as “less than 10 μg/mL”.
As for “KWKSFIKKLTLKFLHSKKKF-NH2 [Peptide L11, S16 derivative by single amino acid substitution]”, the minimal inhibitory concentration (MIC) in series [2] is greater than 50 mg/L.
As to “KWKSFIKKLTSKALHSAKKF-NH2 [Peptide A13, S16 derivative by single amino acid substitution]”, in [1] (setting [18]), the MHC is greater than 500 µg/mL. For the same substance, the Therapeutic index in [2] (setting [19]) worked out at 80. In addition, in series [2], the MIC was 6.25 mg/L. The “%Helix” value in series [4] worked out at 45.9%.
On to KWKSFIKKLTSKFLHLAKKF-NH2 [CP-P], for which the MHC in series [1] (setting [18]) was 250 µg/mL. Moreover, the Therapeutic index in [2] (setting [19]) came out at 20. The minimum inhibitory concentration (MIC) in [2] turned out to be 12.5 mg/L.
In turn, KWKSFIKKLTSKFLHSADKF-NH2 [Peptide D18] registered an MHC in series [1] (setting [18]) greater than 500 µg/mL. In [2] (setting [19]), the Therapeutic index is listed as 20. Moreover, the minimum inhibitory concentration (MIC) in [2] stood at 25 mg/L.
KWKSFIKKLTSKFLHSAKKF-NH2 [Peptide S16] yielded an MHC in series [1] (setting [18]) greater than 500 µg/mL. For the same substance, the Therapeutic index in [2] (setting [19]) is 160. Further, the MIC in series [2] came to 3.125 mg/L; in series [3] (clinical isolate b-01), 3.125 mg/L; in series [3] (clinical isolate b-02), 6.25 mg/L; in [3] (clinical isolate b-03), 6.25 mg/L; in series [3] (clinical isolate b-04), 3.125 mg/L.
KWKSFIKKLTSKFLHSAKKN-NH2 [Peptide N20] showed an MHC in series [1] (setting [18]) greater than 500 µg/mL. Further, the Therapeutic index in [2] (setting [19]) is 80. In addition, the MIC in [2] came out at 6.25 mg/L.
Turning to “KWKSFIKKLTSKFLHSANKF-NH2 [Peptide N18, S16 derivative by single amino acid substitution]”, the MHC in [1] (setting [18]) is greater than 500 µg/mL. Also, in series [2] (setting [19]), the Therapeutic index is on record as 80. Also, the MIC in series [2] is 6.25 mg/L. The “%Helix” value in [4] is 37.2%.
In series [1] (setting [18]), KWKSFIKKLTSKFLHSKKKF-NH2 [Peptide K17] had an MHC greater than 500 µg/mL. For the same substance, the Therapeutic index in series [2] (setting [19]) stood at 40. Also, the MIC in series [2] was determined as 12.5 mg/L.
With KWKSFIKKLTSKKLHSAKKF-NH2 [Peptide K13], the minimum inhibitory concentration (MIC) in [2] is greater than 50 mg/L.
In the case of KWKSFIKKRTSKFLHSAKKF-NH2 [Peptide R9], the minimum inhibitory concentration (MIC) in series [2] is greater than 50 mg/L.
In turn, KWKSFIKKSTSKFLHSAKKF-NH2 [Peptide S9] gave an MHC in series [1] (setting [18]) greater than 500 µg/mL. In addition, the Therapeutic index in series [2] (setting [19]) worked out at 10. In addition, the minimum inhibitory concentration (MIC) in [2] worked out at 50 mg/L.
In series [1] (setting [18]), KWKSFINKLTSKFLHSAKKF-NH2 [Peptide N7] showed an MHC greater than 500 µg/mL. Besides, the Therapeutic index in series [2] (setting [19]) is 40. Also, the minimum inhibitory concentration (MIC) in [2] came to 12.5 mg/L.
Take KWKSFKKKLTSKFLHSAKKF-NH2 [Peptide K6]: the minimal inhibitory concentration (MIC) in series [2] came out at 12.5 mg/L.
For the substance KWNSFIKKLTSKFLHSAKKF-NH2 [Peptide N3], in series [2], the minimum inhibitory concentration (MIC) came out at 12.5 mg/L.

A word on the MIC: it is the smallest concentration in the dilution series that meets the test's criterion for growth inhibition.
